Measured values as given in ChEMBL document CHEMBL4630906, “Data for DCP probe BAY-3153” (2021).
One block for each compound: values may come before it. Active and inactive are the calls of the source. The calls are words filed in the database; no cut-off is given here.

Legend:
[1] = target: T1, Kappa-type opioid receptor (Homo sapiens, UniProt P41145); assay: GPCRScan assay: inhibition of KOR; design: radioligand conc. used [nm] 0.6 – 1.2, parental cells stable HEK
[2] = GPCRScan assay: inhibition of GABA/PBR; design: species or system Rattus norvegicus; radioligand conc. used [nm] 0.3 – 2.0, parental cells brain tissue
[3] = target: T2, Sigma intracellular receptor 2 (Homo sapiens, UniProt Q5BJF2); assay: GPCRScan assay: inhibition of Sigma 2; design: radioligand conc. used [nm] 5.0, parental cells HEKT
[4] = target: T3, Sigma non-opioid intracellular receptor 1 (Homo sapiens, UniProt Q99720); assay: GPCRScan assay: inhibition of Sigma 1; design: radioligand conc. used [nm] 4.0 – 5.0, parental cells HEKT
[5] = target: C-C chemokine receptor type 1 (Homo sapiens, UniProt P32246); assay: CCR1 cellular Ca2+-flux assay; format: functional
[6] = target: 5-hydroxytryptamine receptor 1A (Homo sapiens) (UniProt P08908); conditions: Compound concentration 10.0 uM
[7] = target: 5-hydroxytryptamine receptor 1B (Homo sapiens) (UniProt P28222); conditions: Compound concentration 10.0 uM
[8] = target: 5-hydroxytryptamine receptor 1D (Homo sapiens) (UniProt P28221); conditions: Compound concentration 10.0 uM
[9] = target: 5-hydroxytryptamine receptor 2A (Homo sapiens) (UniProt P28223); conditions: Compound concentration 10.0 uM
[10] = target: 5-hydroxytryptamine receptor 2B (Homo sapiens) (UniProt P41595); conditions: Compound concentration 10.0 uM
[11] = target: 5-hydroxytryptamine receptor 2C (Homo sapiens) (UniProt P28335); conditions: Compound concentration 10.0 uM
[12] = target: 5-hydroxytryptamine receptor 3A (Homo sapiens) (UniProt P46098); conditions: Compound concentration 10.0 uM
[13] = target: 5-hydroxytryptamine receptor 5A (Homo sapiens) (UniProt P47898); conditions: Compound concentration 10.0 uM
[14] = target: 5-hydroxytryptamine receptor 6 (Homo sapiens) (UniProt P50406); conditions: Compound concentration 10.0 uM
[15] = target: D(1A) dopamine receptor (Homo sapiens) (UniProt P21728); conditions: Compound concentration 10.0 uM
[16] = target: D(2) dopamine receptor (Homo sapiens) (UniProt P14416); conditions: Compound concentration 10.0 uM
[17] = target: D(3) dopamine receptor (Homo sapiens) (UniProt P35462); conditions: Compound concentration 10.0 uM
[18] = target: D(4) dopamine receptor (Homo sapiens) (UniProt P21917); conditions: Compound concentration 10.0 uM
[19] = target: D(1B) dopamine receptor (Homo sapiens) (UniProt P21918); conditions: Compound concentration 10.0 uM
[20] = target: T4, Sodium-dependent serotonin transporter (Homo sapiens, UniProt P31645); conditions: Compound concentration 10.0 uM
Target sequence in this assay (P31645 whole entry, looked up): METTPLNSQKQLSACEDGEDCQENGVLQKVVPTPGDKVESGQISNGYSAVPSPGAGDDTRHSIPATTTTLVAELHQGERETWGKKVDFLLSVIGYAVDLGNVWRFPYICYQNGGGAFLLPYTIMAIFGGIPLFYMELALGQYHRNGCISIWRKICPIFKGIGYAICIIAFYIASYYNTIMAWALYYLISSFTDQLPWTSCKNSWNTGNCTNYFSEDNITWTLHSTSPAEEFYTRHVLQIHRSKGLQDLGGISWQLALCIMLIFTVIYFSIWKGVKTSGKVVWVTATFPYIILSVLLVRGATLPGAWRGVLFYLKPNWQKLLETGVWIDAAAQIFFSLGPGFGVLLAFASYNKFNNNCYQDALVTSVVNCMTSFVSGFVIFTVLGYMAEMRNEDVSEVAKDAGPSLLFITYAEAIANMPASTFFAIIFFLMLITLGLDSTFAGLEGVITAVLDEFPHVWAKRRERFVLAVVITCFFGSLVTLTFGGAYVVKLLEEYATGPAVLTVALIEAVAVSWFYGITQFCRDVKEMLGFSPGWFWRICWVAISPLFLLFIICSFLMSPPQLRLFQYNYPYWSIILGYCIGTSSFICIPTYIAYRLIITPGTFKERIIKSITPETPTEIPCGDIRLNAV

[21] = target: Sodium-dependent noradrenaline transporter (Homo sapiens) (UniProt P23975); conditions: Compound concentration 10.0 uM
[22] = target: Sodium-dependent dopamine transporter (Homo sapiens) (UniProt Q01959); conditions: Compound concentration 10.0 uM
[23] = target: Mu-type opioid receptor (Homo sapiens) (UniProt P35372); conditions: Compound concentration 10.0 uM
[24] = target: Delta-type opioid receptor (Homo sapiens) (UniProt P41143); conditions: Compound concentration 10.0 uM
[25] = target: T1, Kappa-type opioid receptor; conditions: Compound concentration 10.0 uM
[26] = target: T5, GABA-A receptor; anion channel (Rattus norvegicus) (UniProt O09028+P15431+P18506+P18508+P19969+P20236+P23574+P23576+P28471+P28473+P30191+P62813+P63079+P63138+Q91ZM7+Q9ES14); conditions: Compound concentration 10.0 uM
[27] = target: Histamine H1 receptor (Homo sapiens) (UniProt P35367); conditions: Compound concentration 10.0 uM
[28] = target: Histamine H2 receptor (Homo sapiens) (UniProt P25021); conditions: Compound concentration 10.0 uM
[29] = target: Histamine H3 receptor (Homo sapiens) (UniProt Q9Y5N1); conditions: Compound concentration 10.0 uM
[30] = target: Alpha-1A adrenergic receptor (Homo sapiens) (UniProt P35348); conditions: Compound concentration 10.0 uM
[31] = target: Alpha-2C adrenergic receptor (Homo sapiens) (UniProt P18825); conditions: Compound concentration 10.0 uM
[32] = target: Beta-2 adrenergic receptor (Homo sapiens) (UniProt P07550); conditions: Compound concentration 10.0 uM
[33] = target: Muscarinic acetylcholine receptor M1 (Homo sapiens) (UniProt P11229); conditions: Compound concentration 10.0 uM
[34] = target: Muscarinic acetylcholine receptor M2 (Homo sapiens) (UniProt P08172); conditions: Compound concentration 10.0 uM
[35] = target: Muscarinic acetylcholine receptor M3 (Homo sapiens) (UniProt P20309); conditions: Compound concentration 10.0 uM
[36] = target: Muscarinic acetylcholine receptor M4 (Homo sapiens) (UniProt P08173); conditions: Compound concentration 10.0 uM
[37] = target: Muscarinic acetylcholine receptor M5 (Homo sapiens) (UniProt P08912); conditions: Compound concentration 10.0 uM
[38] = target: Beta-3 adrenergic receptor (Homo sapiens) (UniProt P13945); conditions: Compound concentration 10.0 uM
[39] = target: T5, GABA-A receptor; anion channel (Rattus norvegicus); conditions: Compound concentration 10.0 uM; remark: listed apart in the source
Rattus norvegicus = organism: Rattus norvegicus; conditions: Compound concentration 10.0 uM
[40] = target: Alpha-1D adrenergic receptor (Homo sapiens) (UniProt P25100); conditions: Compound concentration 10.0 uM
[41] = target: T2, Sigma intracellular receptor 2; conditions: Compound concentration 10.0 uM
[42] = target: T3, Sigma non-opioid intracellular receptor 1; conditions: Compound concentration 10.0 uM
D(4) dopamine receptor = D(4) dopamine receptor (Homo sapiens, UniProt P21917); assay: GPCRScan assay: inhibition of D4; design: radioligand conc. used [nm] 0.6 – 1.7, parental cells Stable HEK
[43] = target: T4, Sodium-dependent serotonin transporter; assay: GPCRScan assay: inhibition of SERT; design: radioligand conc. used [nm] 1.5 – 2.0, parental cells stable HEK
[44] = target: Alpha-2B adrenergic receptor (Homo sapiens, UniProt P18089); assay: GPCRScan assay: inhibition of Alpha2B; design: radioligand conc. used [nm] 1.5 – 2.0, parental cells HEKT
[45] = target: Histamine H4 receptor (Homo sapiens) (UniProt Q9H3N8); conditions: Compound concentration 10.0 uM
[46] = target: Alpha-1B adrenergic receptor (Homo sapiens) (UniProt P35368); conditions: Compound concentration 10.0 uM
[47] = target: Alpha-2A adrenergic receptor (Homo sapiens) (UniProt P08913); conditions: Compound concentration 10.0 uM
[48] = target: Beta-1 adrenergic receptor (Homo sapiens) (UniProt P08588); conditions: Compound concentration 10.0 uM

T2 sequence (Q5BJF2 whole entry): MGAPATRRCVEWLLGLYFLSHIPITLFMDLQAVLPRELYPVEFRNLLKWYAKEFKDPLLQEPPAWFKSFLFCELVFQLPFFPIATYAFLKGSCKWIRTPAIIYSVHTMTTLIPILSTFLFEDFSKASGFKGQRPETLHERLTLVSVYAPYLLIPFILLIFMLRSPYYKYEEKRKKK
T3 sequence (Q99720 whole entry): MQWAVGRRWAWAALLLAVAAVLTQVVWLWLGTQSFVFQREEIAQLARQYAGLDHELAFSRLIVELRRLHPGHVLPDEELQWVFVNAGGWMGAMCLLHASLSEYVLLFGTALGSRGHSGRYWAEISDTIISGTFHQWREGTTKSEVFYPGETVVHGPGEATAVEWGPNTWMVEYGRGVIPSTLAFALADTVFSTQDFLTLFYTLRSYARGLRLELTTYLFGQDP
T1 sequence (P41145 whole entry): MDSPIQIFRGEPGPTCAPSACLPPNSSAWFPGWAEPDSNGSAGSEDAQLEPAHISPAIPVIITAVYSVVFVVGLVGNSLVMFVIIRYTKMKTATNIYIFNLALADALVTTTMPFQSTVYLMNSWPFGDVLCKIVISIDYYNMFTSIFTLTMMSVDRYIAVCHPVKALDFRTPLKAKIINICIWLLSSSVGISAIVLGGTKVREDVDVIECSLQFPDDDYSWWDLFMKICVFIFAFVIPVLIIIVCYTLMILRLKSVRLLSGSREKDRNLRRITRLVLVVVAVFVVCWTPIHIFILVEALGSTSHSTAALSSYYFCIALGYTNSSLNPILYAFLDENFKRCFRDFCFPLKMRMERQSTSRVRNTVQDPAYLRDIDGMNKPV
C-C chemokine receptor type 1, sequence (P32246 whole entry): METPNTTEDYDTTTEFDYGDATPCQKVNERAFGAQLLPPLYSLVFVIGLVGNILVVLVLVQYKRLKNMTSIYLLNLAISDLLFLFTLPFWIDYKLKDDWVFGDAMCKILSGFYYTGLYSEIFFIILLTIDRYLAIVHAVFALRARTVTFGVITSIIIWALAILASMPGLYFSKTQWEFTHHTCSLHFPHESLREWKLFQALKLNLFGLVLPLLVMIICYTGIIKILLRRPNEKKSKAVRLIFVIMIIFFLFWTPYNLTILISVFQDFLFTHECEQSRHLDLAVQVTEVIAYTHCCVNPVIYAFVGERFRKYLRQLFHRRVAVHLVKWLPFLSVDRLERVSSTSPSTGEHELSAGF
5-hydroxytryptamine receptor 2A (Homo sapiens), sequence (P28223 whole entry): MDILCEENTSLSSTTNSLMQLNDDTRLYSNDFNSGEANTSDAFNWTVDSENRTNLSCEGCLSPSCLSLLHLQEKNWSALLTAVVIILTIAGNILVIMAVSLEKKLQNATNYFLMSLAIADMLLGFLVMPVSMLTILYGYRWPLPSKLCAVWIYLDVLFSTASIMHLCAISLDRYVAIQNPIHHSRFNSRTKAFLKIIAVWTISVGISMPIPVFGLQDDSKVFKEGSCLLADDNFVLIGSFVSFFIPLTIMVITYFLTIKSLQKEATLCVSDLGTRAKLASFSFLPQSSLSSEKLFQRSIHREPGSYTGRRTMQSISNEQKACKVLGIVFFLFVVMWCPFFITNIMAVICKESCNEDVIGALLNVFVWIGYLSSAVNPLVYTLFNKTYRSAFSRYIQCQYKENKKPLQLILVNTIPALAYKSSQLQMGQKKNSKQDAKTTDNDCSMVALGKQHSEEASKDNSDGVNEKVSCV
D(4) dopamine receptor (Homo sapiens), sequence (P21917 whole entry): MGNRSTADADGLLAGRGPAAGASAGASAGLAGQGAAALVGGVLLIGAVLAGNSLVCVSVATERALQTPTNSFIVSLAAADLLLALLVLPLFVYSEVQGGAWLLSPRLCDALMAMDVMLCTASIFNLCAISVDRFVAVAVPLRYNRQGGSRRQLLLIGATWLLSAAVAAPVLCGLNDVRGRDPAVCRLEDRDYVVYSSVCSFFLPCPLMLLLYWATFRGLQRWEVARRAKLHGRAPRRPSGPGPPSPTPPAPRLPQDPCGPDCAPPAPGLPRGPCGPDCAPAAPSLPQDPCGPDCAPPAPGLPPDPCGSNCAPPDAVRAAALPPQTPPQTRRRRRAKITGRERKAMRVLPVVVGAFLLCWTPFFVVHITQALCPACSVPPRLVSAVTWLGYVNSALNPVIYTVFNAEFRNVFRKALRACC
Alpha-1A adrenergic receptor (Homo sapiens), sequence (P35348 whole entry): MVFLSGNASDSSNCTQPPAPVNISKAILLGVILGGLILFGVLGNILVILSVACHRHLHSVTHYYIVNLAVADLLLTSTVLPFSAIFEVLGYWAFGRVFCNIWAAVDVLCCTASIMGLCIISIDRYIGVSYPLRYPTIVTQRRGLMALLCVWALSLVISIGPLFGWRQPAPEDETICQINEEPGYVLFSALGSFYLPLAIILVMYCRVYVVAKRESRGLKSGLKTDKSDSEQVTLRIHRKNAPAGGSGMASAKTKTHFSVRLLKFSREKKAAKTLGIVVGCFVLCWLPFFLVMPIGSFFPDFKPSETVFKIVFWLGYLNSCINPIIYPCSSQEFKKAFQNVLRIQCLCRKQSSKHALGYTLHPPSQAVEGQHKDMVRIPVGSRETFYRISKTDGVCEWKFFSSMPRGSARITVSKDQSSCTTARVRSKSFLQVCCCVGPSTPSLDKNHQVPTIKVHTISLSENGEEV
Beta-2 adrenergic receptor (Homo sapiens), sequence (P07550 whole entry, looked up): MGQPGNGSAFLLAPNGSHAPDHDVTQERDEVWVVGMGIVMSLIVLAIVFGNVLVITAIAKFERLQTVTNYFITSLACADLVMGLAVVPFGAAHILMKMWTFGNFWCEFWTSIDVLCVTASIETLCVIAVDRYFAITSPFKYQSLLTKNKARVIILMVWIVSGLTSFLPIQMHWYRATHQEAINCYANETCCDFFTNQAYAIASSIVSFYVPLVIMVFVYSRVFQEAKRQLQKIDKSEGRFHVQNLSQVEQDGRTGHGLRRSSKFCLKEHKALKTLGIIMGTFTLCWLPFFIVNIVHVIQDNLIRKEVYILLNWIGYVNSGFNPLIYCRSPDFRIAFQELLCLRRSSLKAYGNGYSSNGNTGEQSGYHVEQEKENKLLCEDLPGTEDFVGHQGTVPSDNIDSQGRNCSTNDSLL
5-hydroxytryptamine receptor 6 (Homo sapiens), sequence (P50406 whole entry): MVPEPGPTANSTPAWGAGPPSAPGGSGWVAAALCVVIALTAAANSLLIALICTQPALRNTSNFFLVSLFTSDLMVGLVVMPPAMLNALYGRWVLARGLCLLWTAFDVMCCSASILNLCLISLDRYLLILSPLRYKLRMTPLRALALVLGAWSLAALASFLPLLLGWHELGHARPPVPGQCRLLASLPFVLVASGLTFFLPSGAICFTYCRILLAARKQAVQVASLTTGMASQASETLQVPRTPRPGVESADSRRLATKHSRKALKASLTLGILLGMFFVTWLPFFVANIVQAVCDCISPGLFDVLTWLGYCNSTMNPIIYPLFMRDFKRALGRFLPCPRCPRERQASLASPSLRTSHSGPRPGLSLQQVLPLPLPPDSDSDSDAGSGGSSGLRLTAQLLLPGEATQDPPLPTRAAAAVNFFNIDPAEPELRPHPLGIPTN
5-hydroxytryptamine receptor 2C (Homo sapiens), sequence (P28335 whole entry): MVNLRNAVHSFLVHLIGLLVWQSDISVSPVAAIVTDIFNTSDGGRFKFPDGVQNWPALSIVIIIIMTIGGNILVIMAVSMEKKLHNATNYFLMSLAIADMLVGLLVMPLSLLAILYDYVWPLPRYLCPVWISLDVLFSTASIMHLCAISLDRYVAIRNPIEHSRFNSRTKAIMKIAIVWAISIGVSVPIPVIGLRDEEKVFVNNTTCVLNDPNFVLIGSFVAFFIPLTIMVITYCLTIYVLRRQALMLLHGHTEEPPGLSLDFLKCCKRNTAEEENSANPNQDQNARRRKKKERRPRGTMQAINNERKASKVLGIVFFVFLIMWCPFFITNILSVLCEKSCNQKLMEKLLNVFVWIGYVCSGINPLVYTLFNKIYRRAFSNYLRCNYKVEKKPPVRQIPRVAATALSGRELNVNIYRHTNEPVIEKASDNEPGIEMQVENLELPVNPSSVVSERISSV
D(3) dopamine receptor (Homo sapiens), sequence (P35462 whole entry): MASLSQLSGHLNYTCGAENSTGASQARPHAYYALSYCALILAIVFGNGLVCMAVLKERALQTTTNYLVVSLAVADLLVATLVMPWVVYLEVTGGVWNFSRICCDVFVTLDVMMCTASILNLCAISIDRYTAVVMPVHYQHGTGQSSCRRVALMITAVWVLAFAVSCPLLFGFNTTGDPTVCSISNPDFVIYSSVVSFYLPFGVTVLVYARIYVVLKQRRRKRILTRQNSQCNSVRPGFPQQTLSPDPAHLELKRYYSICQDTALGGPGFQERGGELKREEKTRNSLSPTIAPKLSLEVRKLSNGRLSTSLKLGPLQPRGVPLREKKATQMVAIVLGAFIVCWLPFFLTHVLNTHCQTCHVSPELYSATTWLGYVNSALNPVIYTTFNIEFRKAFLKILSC
D(4) dopamine receptor, sequence (P21917 whole entry): as the sequence (P21917 whole entry) above

- Ki [1]: 3.01 µM
- Ki [2]: 1.81 µM
- pKi [2]: 5.74
- Ki [3]: 1.48 µM
- Ki [4]: 1.83 µM
- IC50 [5]: 0.003 µM (active)
- inhibition [6]: -9.03%
- inhibition [7]: -2.86%
- inhibition [8]: -2.08%
- inhibition [9]: 6.74%
- inhibition [10]: 10.5%
- inhibition [11]: 4.08%
- inhibition [12]: -1.97%
- inhibition [13]: 1.7%
- inhibition [14]: -8.16%
- inhibition [15]: 40.3%
- inhibition [16]: 7.26%
- inhibition [17]: 1.58%
- inhibition [18]: 15.5%
- inhibition [19]: 2.54%
- inhibition [20]: 33.4%
- inhibition [21]: 1.24%
- inhibition [22]: 3.92%
- inhibition [23]: 5.82%
- inhibition [24]: 10.3%
- inhibition [25]: 53.6%
- inhibition [26]: 18.6%
- inhibition [27]: 11.2%
- inhibition [28]: 27.7%
- inhibition [29]: 17.3%
- inhibition [30]: 17%
- inhibition [31]: 2.17%
- inhibition [32]: -4.63%
- inhibition [33]: -5.67%
- inhibition [34]: 8.64%
- inhibition [35]: 8.61%
- inhibition [36]: -3.29%
- inhibition [37]: -4.29%
- inhibition [38]: -5.38%
- inhibition [39]: -6.17%
- inhibition (Rattus norvegicus): 54.2%
- inhibition [40]: 7.09%
- inhibition [41]: 83.6%
- inhibition [42]: 85%
Compound: CCOc1cc(N2C3COCC2CN(C(=O)[C@H]2C[C@H](O)CN2c2ccc(Cl)cc2)C3)ccc1Cl [BAY-3153]

- Ki (D(4) dopamine receptor): 10 µM
- Ki [43]: 1.46 µM
- Ki [44]: 10 µM
- Ki [3]: 2.17 µM
- Ki [4]: 8.25 µM
- IC50 [5]: 1.2 µM (not active)
- inhibition [7]: -6.45%
- inhibition [8]: -7.5%
- inhibition [9]: 7.31%
- inhibition [10]: 14.8%
- inhibition [11]: -2.02%
- inhibition [12]: -7.03%
- inhibition [13]: -1.82%
- inhibition [14]: 5.38%
- inhibition [17]: 2.75%
- inhibition [18]: 51.5%
- inhibition [19]: 6.84%
- inhibition [20]: 70.3%
- inhibition [21]: -4.52%
- inhibition [23]: 4.45%
- inhibition [25]: 18.7%
- inhibition [26]: 20%
- inhibition [27]: 14.3%
- inhibition [28]: 8.13%
- inhibition [29]: 9.39%
- inhibition [45]: -3.31%
- inhibition [30]: 7.02%
- inhibition [46]: 0.94%
- inhibition [47]: 11.3%
- inhibition [31]: 14.4%
- inhibition [48]: 6.12%
- inhibition [32]: -7.55%
- inhibition [33]: -3.85%
- inhibition [34]: 1.89%
- inhibition [35]: 24.1%
- inhibition [36]: -6.12%
- inhibition [37]: -1.65%
- inhibition [38]: -9.84%
- inhibition [39]: 0.65%
- inhibition (Rattus norvegicus): -8.33%
- inhibition [40]: -7.34%
- inhibition [41]: 76.5%
- inhibition [42]: 69.5%
Compound: O=C([C@H]1C[C@H](O)CN1c1ccc(Cl)cc1)N1CC2COCC(C1)N2Cc1ccc(Cl)cc1 [BAY-173]
